In data set [1] the test system is human peripheral blood lymphocytes. The experiment in a line: Cytotoxicity by LDH release, LPS-stimulated human peripheral blood lymphocytes. It counts as cell-based. The procedure: (§1) The pyrazoloisoquinoline derivatives according to the invention were tested for inhibitory activity against NIK in various in vitro assay systems. In this connection, human peripheral blood lymphocytes were preincubated for 1 h with different concentrations of the compounds and then stimulated for 24 h with LPS or IL1β. After that, a commercially obtainable ELISA test kit was used to measure the release of TNFα in the culture supernatant, and the IC50 for the given compound was determined. The cytotoxicity was measured by way of LDH release using a commercially obtainable test kit and the LD50 for the given compound was determined.
In general terms: Release of lactate dehydrogenase indicates damage to the cell membrane.

Data set [2] shares this test system. Nature of the data set: Cytotoxicity by LDH release, IL1β-stimulated human peripheral blood lymphocytes. Format: cell-based. The procedure:
as §1

For the compound `COc1cccc(-c2nc3c(C)n[nH]c3c3ccccc23)c1` [Example 2, 5-(3-Methoxyphenyl)-3-methyl-1H-pyrazolo[4,3-c]isoquinoline], the “Cytotoxicity LD50” value in data set [1] and in data set [2] was more than 100 µM throughout.

Regarding `Cc1n[nH]c2c1nc(-c1cccc(O)c1)c1ccccc12` [Example 3, 3-(3-Methyl-1H-pyrazolo[4,3-c]isoquinolin-5-yl)phenol], the “Cytotoxicity LD50” value in data set [1] and in data set [2] was more than 100 µM throughout.

As to `c1ccc(-c2nc3c(-c4ccccc4)n[nH]c3c3ccccc23)cc1` [Example 1, 3,5-Diphenyl-1H-pyrazolo[4,3-c]isoquinoline], the “Cytotoxicity LD50” value in data set [1] and in data set [2] was more than 100 µM each time.

The values above are taken from patent US6841556B2, “Pyrazoloisoquinoline derivatives for inhibiting NFκB-inducing kinase” (Aventis Pharma Deutschland GmbH, priority 2002, dated 2005).
